Experimental data as given in patent US20150004126A9, “COMPOSITIONS” (GIVAUDAN S.A., priority 2011, published 2015).

Experiments:
[1] = Solubility in a cyclodextrin-containing fabric refreshener; assay type: physicochemical; settings: at 0.1%
[2] = target: N-alpha acyl glutamine aminoacylase (Corynebacterium striatum, UniProt Q8GGD4); test: Malodour generated on cloth with enzyme and HMHA sweat precursor, assessed by a panel; assay type: biochemical, Corynebacteria; settings: 0.1% compound in respective test products (un-fragranced base, fragranced base, Febreze) on polycotton cloth with HMHA precursor and enzyme, 37° C. 30 min; panel scale 0-10; vs untreated control
Text: The objective of the study is to measure the effectiveness of malodour-counteracting compounds for use in the present invention at reducing malodour generated on cloth in the presence of the enzyme N-alpha acyl glutamine aminoacylase, and the sweat precursor for the malodorous fatty acid 3-methyl-3-hydroxy-hexanoic acid (HMHA). The aim is to achieve a significant reduction in malodour on cloth against: • a) an untreated fabric • b) a marketed fabric freshener, namely Spring & Renewal Febreze®.
140 μg of odourless precursor for HMHA (equivalent to 15 minutes of physical exercise) is dissolved in 125 μl of 12% ethanol/88% water and applied to 12.5 cm2 polycotton (40/60 mix) cloth in a 30 ml Beatson jar.
The cloth was allowed to dry completely in a 40° C. oven before checking for residual malodour.
Thereafter, the cloth was moistened with 125 μl of a solution containing 0.33 μg/ml of the enzyme N-α-acyl glutamine aminoacylase in 50 mM phosphate buffer pH 6 and the treated cloth was allowed to incubate in a glass jar at 37° C. for 30 minutes.
Thereafter a few drops of a 10% concentration of HCL were added to protonate the acids.
Malodour was assessed by a panel on a scale of 0 (nothing)-10 (very strong)
Malodour precursor was applied to cloth as described above and the cloth allowed to dry in an oven at 40° C.
125 μl of each of the following solutions was applied on to polycotton cloth already containing the precursor and allowed to dry in a 40° C. oven:
0.1% of the Compounds (I), (II), and (III) defined above (hereinafter referred to generally as “compound”), dissolved in an un-fragranced in-house fabric refresher base 0.1% of each compound dissolved in a fragranced fabric refresher base fragranced with a 0.05% of a proprietary fragrance having a floral-green-aldehyde odour (hereinafter “fragrance”).
0.1% of each inhibitor dissolved in a Febreze(r) Market product (Spring & Renewal) […]

Sequence of N-alpha acyl glutamine aminoacylase (Q8GGD4 whole entry): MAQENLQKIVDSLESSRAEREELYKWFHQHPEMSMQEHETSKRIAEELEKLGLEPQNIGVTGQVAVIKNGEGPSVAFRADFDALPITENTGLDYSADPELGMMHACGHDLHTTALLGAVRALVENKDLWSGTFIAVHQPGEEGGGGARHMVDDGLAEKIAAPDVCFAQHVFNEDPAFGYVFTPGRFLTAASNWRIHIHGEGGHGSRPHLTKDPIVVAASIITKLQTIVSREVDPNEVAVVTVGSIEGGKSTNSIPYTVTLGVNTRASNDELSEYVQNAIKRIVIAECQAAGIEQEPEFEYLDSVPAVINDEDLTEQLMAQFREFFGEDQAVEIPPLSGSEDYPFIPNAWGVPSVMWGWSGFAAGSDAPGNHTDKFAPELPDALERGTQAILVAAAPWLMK

| Structure (SMILES) | solubility in a cyclodextrin-containing fabric refreshener [1] | malodour reduction compared with the control [2] |
| --- | --- | --- |
| CCCCC(CC)CNC(=O)N[C@@H](CCC(N)=O)C(=O)O (stereo partly drawn) [Compound III] | soluble | clear and significant malodour reduction |
| CC(CCOC(=O)NC(CCC(N)=O)C(=O)O)CCc1ccccc1 (stereo not drawn) [Compound II] | soluble | clear and significant malodour reduction |
| NC(=O)CC[C@H](NC(=O)OCc1ccccc1)C(=O)O [Compound I] | soluble | clear and significant malodour reduction |
